Test results: ChEMBL document CHEMBL2412969, “Antihyperglycemic and antihyperlipidemic activities of 2-(4-[(2-hydroxybenzyl) amino]-phenyl amino-methyl)-phenol in STZ induced diabetic rats” (Eur J Med Chem, 2013)
Active and inactive are the calls of the source. The calls are words filed in the database; no cut-off is given here.

Key:
[1] = test system: Rattus norvegicus; assay: Toxicity in Wistar albino rat assessed as increase of body weight at 30 mg/kg, po qd measured on day 30 (reference value: 8.82%); format: organism-based; parameters: dose 30 mg/kg, route oral; details: in vivo
[2] = test system: Rattus norvegicus; assay: Hypoglycemic activity in Wistar albino rat assessed as reduction of blood glucose level at 20 mg/kg, po after 1 hr (reference value: 71.26 +/- 4.3 mg/dl); format: ADME, organism-based; parameters: dose 20 mg/kg, route oral; details: in vivo
[3] = test system: Rattus norvegicus; assay: Antihyperglycemic activity in Wistar albino rat streptozotocin-induced diabetic model assessed as reduction of blood glucose level at 20 mg/kg, po after 6 hrs (reference value: 372.5 +/- 15.6 mg/dl); format: functional
[4] = test system: Rattus norvegicus; assay: Renaltoxicity in Wistar albino rat assessed as creatinine level in blood at 30 mg/kg, po qd for 30 days; format: organism-based; parameters: dose 30 mg/kg, route oral; details: in vivo, 720 h
[5] = test system: Rattus norvegicus; assay: Hypoglycemic activity in Wistar albino rat assessed as reduction of blood glucose level at 60 mg/kg, po after 4 hrs (reference value: 75.8 +/- 4.7 mg/dl); format: ADME, organism-based; parameters: dose 60 mg/kg, route oral; details: in vivo
[6] = test system: Rattus norvegicus; assay: Antiatherosclerosis activity in Wistar albino rat streptozotocin-induced diabetic model assessed as protection from atherogenicity at 30 mg/kg, po qd for 30 days relative to control; format: functional
[7] = test system: Rattus norvegicus; assay: Antihyperglycemic activity in Wistar albino rat streptozotocin-induced diabetic model assessed as reduction of blood glucose level at 20 mg/kg, po after 2 hrs (reference value: 386.66 +/- 17.5 mg/dl); format: functional
[8] = test system: Rattus norvegicus; assay: Renalprotective activity in Wistar albino rat assessed as protection against streptozotocin-induced increase in urea level in blood at 30 mg/kg, po qd for 30 days; format: functional
[9] = test system: Rattus norvegicus; assay: Hypoglycemic activity in Wistar albino rat assessed as reduction of fasting blood glucose level at 30 mg/kg, po qd measured on day 1 (reference value: 89 +/- 6.4 mg/dl); format: ADME, organism-based; parameters: dose 30 mg/kg, route oral; details: in vivo
[10] = test system: Rattus norvegicus; assay: Antihyperglycemic activity in Wistar albino rat streptozotocin-induced diabetic model assessed as reduction of blood glucose level at 60 mg/kg, po after 1 hr (reference value: 389.16 +/- 19 mg/dl); format: functional
[11] = test system: Rattus norvegicus; assay: Hypoglycemic activity in Wistar albino rat assessed as reduction of blood glucose level at 20 mg/kg, po after 2 hrs (reference value: 76.5 +/- 3.7 mg/dl); format: ADME, organism-based; parameters: dose 20 mg/kg, route oral; details: in vivo
[12] = test system: Rattus norvegicus; assay: Antihyperglycemic activity in Wistar albino rat streptozotocin-induced diabetic model assessed as reduction of blood glucose level at 60 mg/kg, po after 2 hrs (reference value: 386.66 +/- 17.5 mg/dl); format: functional
[13] = test system: Rattus norvegicus; assay: Hypoglycemic activity in Wistar albino rat assessed as reduction of blood glucose level at 60 mg/kg, po after 6 hrs (reference value: 73.3 +/- 4.4 mg/dl); format: ADME, organism-based; parameters: dose 60 mg/kg, route oral; details: in vivo
[14] = test system: Rattus norvegicus; assay: Antihyperglycemic activity in Wistar albino rat streptozotocin-induced diabetic model assessed as reduction of blood glucose level at 60 mg/kg, po after 4 hrs (reference value: 373.5 +/- 15.6 mg/dl); format: functional
[15] = test system: Rattus norvegicus; assay: Antiatherosclerosis activity in Wistar albino rat assessed as protection from atherogenicity at 30 mg/kg, po qd for 30 days relative to control; format: functional
[16] = test system: Rattus norvegicus; assay: Hypoglycemic activity in Wistar albino rat assessed as reduction of blood glucose level at 30 mg/kg, po after 1 hr (reference value: 71.26 +/- 4.3 mg/dl); format: ADME, organism-based; parameters: dose 30 mg/kg, route oral; details: in vivo
[17] = test system: Rattus norvegicus; assay: Antihyperglycemic activity in Wistar albino rat streptozotocin-induced diabetic model assessed as reduction of blood glucose level at 20 mg/kg, po after 1 hr (reference value: 389.16 +/- 19 mg/dl); format: functional
[18] = test system: Rattus norvegicus; assay: Antihyperlipidemic activity in Wistar albino rat streptozotocin-induced diabetic model assessed as reduction of serum VLDL-cholesterol level at 30 mg/kg, po qd for 30 days; format: functional, organism-based; parameters: dose 30 mg/kg
[19] = test system: Rattus norvegicus; assay: Antihyperglycemic activity in Wistar albino rat streptozotocin-induced diabetic model assessed as reduction of blood glucose level at 30 mg/kg, po after 4 hrs (reference value: 373.5 +/- 15.6 mg/dl); format: functional
[20] = test system: Rattus norvegicus; assay: Antihyperglycemic activity in Wistar albino rat streptozotocin-induced diabetic model assessed as reduction of blood glucose level at 60 mg/kg, po after 3 hrs (reference value: 384.33 +/- 17.33 mg/dl); format: functional
[21] = test system: Rattus norvegicus; assay: Antihyperglycemic activity in glucose loaded Wistar albino rat streptozotocin-induced diabetic model assessed as reduction of blood glucose level at 30 mg/kg, po after 3 hrs by oral glucose tolerance test; format: functional; parameters: scale not given: the % may be the effect or the level left
[22] = test system: Rattus norvegicus; assay: Antihyperlipidemic activity in Wistar albino rat streptozotocin-induced diabetic model assessed as increase of serum HDL-cholesterol level at 30 mg/kg, po qd for 30 days; format: functional, organism-based; parameters: dose 30 mg/kg
[23] = test system: Rattus norvegicus; assay: Hypoglycemic activity in Wistar albino rat assessed as reduction of fasting blood glucose level at 30 mg/kg, po qd measured on day 15 (reference value: 82.66 +/- 6.05 mg/dl); format: ADME, organism-based; parameters: dose 30 mg/kg, route oral; details: in vivo
[24] = test system: Rattus norvegicus; assay: Antihyperglycemic activity in Wistar albino rat streptozotocin-induced diabetic model assessed as reduction of blood glucose level at 30 mg/kg, po after 1 hr (reference value: 389.16 +/- 19 mg/dl); format: functional
[25] = test system: Rattus norvegicus; assay: Hepatotoxicity in Wistar albino rat assessed as AST, ALT and ALP level in serum at 30 mg/kg, po qd for 30 days; format: toxicity, organism-based; parameters: dose 30 mg/kg, route oral; details: in vivo, 720 h

Question: For `Oc1ccccc1CNc1ccc(NCc2ccccc2O)cc1`, which Activity [1] is on record?
Answer: 2.94%

Question: What about the Activity [2] of the same compound?
Answer: 74.12 mg/dL

Question: And the Activity [3]?
Answer: 223.28 mg/dL

Question: And the Activity [4]?
Answer: 0.37 mg/dL

Question: What about the Activity [5] of the same compound?
Answer: 79.3 mg/dL

Question: And the Activity [6]?
Answer: 66.8%

Question: And the Activity [7]?
Answer: 312.83 mg/dL

Question: And the Activity [8]?
Answer: 54.02 mg/dL

Question: And the Activity [9]?
Answer: 90.6 mg/dL

Question: What about the Activity [10] of the same compound?
Answer: 233.16 mg/dL

Question: And the Activity [11]?
Answer: 73.16 mg/dL

Question: What about the Activity [12] of the same compound?
Answer: 109.5 mg/dL

Question: What about the Activity [13] of the same compound?
Answer: 75 mg/dL

Question: What about the Activity [14] of the same compound?
Answer: 54.8 mg/dL

Question: What about the Activity [15] of the same compound?
Answer: 70.1%

Question: What about the Activity [16] of the same compound?
Answer: 74.16 mg/dL

Question: And the Activity [17]?
Answer: 357.5 mg/dL

Question: And the Activity [18]?
Answer: Active

Question: What about the Activity [19] of the same compound?
Answer: 215.6 mg/dL

Question: And the Activity [20]?
Answer: 61.4 mg/dL

Question: What about the Activity [21] of the same compound?
Answer: 56%

Question: And the Activity [22]?
Answer: Active

Question: What about the Activity [23] of the same compound?
Answer: 80.66 mg/dL

Question: And the Activity [24]?
Answer: 315.2 mg/dL

Question: What about the Activity [25] of the same compound?
Answer: Non-toxic
